Reference: patent US6413953B1, “Pt(IV) antitumor agent” (AnorMED Inc., priority 1999, dated 2002)
Like-named read-outs stand apart in the source and are kept apart here.

Columns and labels:
[1] = Aqueous solubility at ambient conditions; assay type: physicochemical; settings: for Aqueous Solubility / Ratio to Solubility of bis-butyrato-ammine-(cyclohexylamine)dichloro platinum (IV) / Ratio to Solubility of cis-ammine(2-methylpyridine)Dichloroplatinum (II) / Ratio to Solubility of cisplatin: ambient conditions
2780R = experiment: Cell proliferation IC50, human cancer cell lines in culture; assay type: cell-based; settings: for resistance factor: 2780R vs A2780, in brackets; for IC50: read-out: IC50 (50% decrease in cell proliferation), 2780R cisplatin-resistant cell line; for (IC50-Pt(IV)/IC50-Pt(II)): A2780R cell line, vs cis-amminedichloro(2-methylpyridine)platinum(II)
Description: (§1) Compounds were tested against human cancer cell lines grown in cell culture according to established procedures (described by Holford, et al., British J. Cancer 1998 77(3) 366-373).

41MR = experiment: as above; assay type: cell-based; settings: for resistance factor: 41MR vs 41M, in brackets; for IC50: read-out: IC50 (50% decrease in cell proliferation), 41MR cisplatin-resistant cell line; for (IC50-Pt(IV)/IC50-Pt(II)): 41MR cell line, vs cis-amminedichloro(2-methylpyridine)platinum(II)
Description: as §1

41M = experiment: as above; assay type: cell-based; settings: 41M cell line; for IC50: read-out: IC50 (50% decrease in cell proliferation); for (IC50-Pt(IV)/IC50-Pt(II)): vs cis-amminedichloro(2-methylpyridine)platinum(II)
Description: as §1

A2780 = experiment: as above; assay type: cell-based; settings: A2780 cell line; for IC50: read-out: IC50 (50% decrease in cell proliferation); for (IC50-Pt(IV)/IC50-Pt(II)): vs cis-amminedichloro(2-methylpyridine)platinum(II)
Description: as §1

CH1R = experiment: as above; assay type: cell-based; settings: for resistance factor: CH1R vs CH1, in brackets; for IC50: read-out: IC50 (50% decrease in cell proliferation), CH1R cisplatin-resistant cell line; for (IC50-Pt(IV)/IC50-Pt(II)): CH1R cell line, vs cis-amminedichloro(2-methylpyridine)platinum(II)
Description: as §1

CH1 = experiment: as above; assay type: cell-based; settings: CH1 cell line; for IC50: read-out: IC50 (50% decrease in cell proliferation); for (IC50-Pt(IV)/IC50-Pt(II)): vs cis-amminedichloro(2-methylpyridine)platinum(II)
Description: as §1

[2] = tested on: CH1 tumor containing xenografts; experiment: In vivo growth delay in CH1 tumor xenografts; settings: administered at maximum tolerated dose
Text: This is in contrast to the growth delay of 0.6 days, achieved with compound E (FIG. 1).

[3] = background statement; cited from earlier work
[4] = solubility ratio to cis-amminedichloro(2-methylpyridine)platinum(II)

## Cc1ccccn1.N.[Cl-].[Cl-].[Pt+2] [cis-ammine(2-methylpyridine)dichloroplatinum(II), reference compound]
[1]
  Aqueous Solubility: 0.7 mg/mL
  Ratio to Solubility of bis-butyrato-ammine-(cyclohexylamine)dichloro platinum (IV): 3.5
  Ratio to Solubility of cis-ammine(2-methylpyridine)Dichloroplatinum (II): 1
  Ratio to Solubility of cisplatin: 0.7
2780R
  resistance factor: (4.8)
  IC50: 12 µM
41MR
  resistance factor: (1.1)
  IC50: 6 µM
41M
  IC50: 5.6 µM
A2780
  IC50: 2.5 µM
CH1R
  resistance factor: (1)
  IC50: 2.1 µM
CH1
  IC50: 2.2 µM

## CC(=O)[O][Pt]([OH])([Cl])[O]C(C)=O.Cc1ccccn1.N [Compound E]
[1]
  (SolPt(IV)/SolPt(II)): 21.4
  Aqueous Solubility: 15 mg/mL
  Ratio to Solubility of bis-butyrato-ammine-(cyclohexylamine)dichloro platinum (IV): 75
  Ratio to Solubility of cis-ammine(2-methylpyridine)Dichloroplatinum (II): 21.4
  Ratio to Solubility of cisplatin: 15
2780R
  resistance factor: (5.9)
  (IC50-Pt(IV)/IC50-Pt(II)): 5.2
  IC50: 62 µM
41MR
  (IC50-Pt(IV)/IC50-Pt(II)): 13
  resistance factor: (1)
  IC50: 78 µM
41M
  (IC50-Pt(IV)/IC50-Pt(II)): 13.9
  IC50: 78 µM
A2780
  (IC50-Pt(IV)/IC50-Pt(II)): 4.2
  IC50: 10.5 µM
CH1R
  (IC50-Pt(IV)/IC50-Pt(II)): 21.9
  resistance factor: (2.6)
  IC50: 46 µM
CH1
  (IC50-Pt(IV)/IC50-Pt(II)): 8.2
  IC50: 18 µM
[2]
  growth delay: 0.6 days

## Cc1cccc[n+]1[Pt-2]([NH3+])([OH])([OH])([Cl])[Cl] [Compound B]
[1]
  Aqueous Solubility: ˜5 mg/ml
  Ratio to Solubility of bis-butyrato-ammine-(cyclohexylamine)dichloro platinum (IV): 25
  Ratio to Solubility of cis-ammine(2-methylpyridine)Dichloroplatinum (II): 7.1
  Ratio to Solubility of cisplatin: 5
[1]; [4]
  (SolPt(IV)/SolPt(II)): 7.1
2780R
  resistance factor: (8)
  (IC50-Pt(IV)/IC50-Pt(II)): 3.0
  IC50: 36 µM
41MR
  (IC50-Pt(IV)/IC50-Pt(II)): 3.2
  resistance factor: (1.9)
  IC50: 19 µM
41M
  (IC50-Pt(IV)/IC50-Pt(II)): 1.8
  IC50: 10 µM
A2780
  (IC50-Pt(IV)/IC50-Pt(II)): 1.8
  IC50: 4.5 µM
CH1R
  (IC50-Pt(IV)/IC50-Pt(II)): 3.5
  resistance factor: (2.2)
  IC50: 7.4 µM
CH1
  (IC50-Pt(IV)/IC50-Pt(II)): 1.5
  IC50: 3.4 µM

## [NH2][Pt]1([NH2])[O]C(=O)C2(CCC2)C(=O)[O]1 [carboplatin, diammine[1,1-cyclobutanedicarboxylato (2-)]-O,O′-platinum(II), reference compound]
[1]
  Aqueous Solubility: 14 mg/mL
  Ratio to Solubility of bis-butyrato-ammine-(cyclohexylamine)dichloro platinum (IV): 70
  Ratio to Solubility of cis-ammine(2-methylpyridine)Dichloroplatinum (II): 20
  Ratio to Solubility of cisplatin: 14
2780R
  resistance factor: (14.4)
  IC50: 25.9 µM
41MR
  resistance factor: (2.7)
  IC50: 8.8 µM
41M
  IC50: 3.3 µM
A2780
  IC50: 1.8 µM
CH1R
  resistance factor: (4.5)
  IC50: 6 µM
CH1
  IC50: 1.3 µM
[3]
  Aqueous Solubility: 14 mg/mL

## N.N.[Cl][Pt][Cl] [cisplatin, [PtCl2(NH3)2], reference compound]
2780R
  resistance factor: (15.7)
  IC50: 5.2 µM
41MR
  resistance factor: (4.6)
  IC50: 1.2 µM
41M
  IC50: 0.26 µM
A2780
  IC50: 0.33 µM
CH1R
  resistance factor: (6.5)
  IC50: 0.71 µM
CH1
  IC50: 0.11 µM
[2]
  growth delay: 34 days

## CCCC(=O)[O][Pt]([NH2])([Cl])([Cl])([NH]C1CCCCC1)[O]C(=O)CCC [Compound G, bis-butyratoammine(cyclohexylamine)dichloroplatinum(IV), reference compound]
41MR
  resistance factor: (0.67)
  IC50: 0.048 µM
41M
  IC50: 0.072 µM
CH1R
  resistance factor: (3.7)
  IC50: 0.024 µM
CH1
  IC50: 0.0066 µM

## CC(=O)[O][Pt]([NH2])([Cl])([Cl])([NH]C1CCCCC1)[O]C(C)=O [Compound F, bis-acetatoammine(cyclohexylamine)dichloroplatinum(IV), reference compound]
[1]
  Aqueous Solubility: <1 mg/mL
  Ratio to Solubility of bis-butyrato-ammine-(cyclohexylamine)dichloro platinum (IV): <5
  Ratio to Solubility of cis-ammine(2-methylpyridine)Dichloroplatinum (II): <1.4
  Ratio to Solubility of cisplatin: <1
2780R
  resistance factor: (4.6)
  IC50: 1.84 µM
41MR
  resistance factor: (1.2)
  IC50: 0.6 µM
41M
  IC50: 0.5 µM
A2780
  IC50: 0.4 µM
CH1R
  resistance factor: (4)
  IC50: 0.4 µM

## ammine(chloro)trihydroxo(2-methylpyridine)platinum(IV) [Compound A]
2780R
  resistance factor: (4.3)
  (IC50-Pt(IV)/IC50-Pt(II)): 3.4
  IC50: 41 µM
41MR
  (IC50-Pt(IV)/IC50-Pt(II)): 7.5
  resistance factor: (1.8)
  IC50: 45 µM
41M
  (IC50-Pt(IV)/IC50-Pt(II)): 4.5
  IC50: 25 µM
A2780
  (IC50-Pt(IV)/IC50-Pt(II)): 3.8
  IC50: 9.5 µM
CH1R
  (IC50-Pt(IV)/IC50-Pt(II)): 5.7
  resistance factor: (2)
  IC50: 12 µM
CH1
  (IC50-Pt(IV)/IC50-Pt(II)): 2.7
  IC50: 6 µM
[2]
  growth delay: 32.8 days

## CC(=O)[O][Pt]([OH])([Cl])[O]C(C)=O.Cc1ccccn1.N [Compound C]
[1]
  Aqueous Solubility: 20 mg/mL
  Ratio to Solubility of bis-butyrato-ammine-(cyclohexylamine)dichloro platinum (IV): 100
  Ratio to Solubility of cis-ammine(2-methylpyridine)Dichloroplatinum (II): 28.6
  Ratio to Solubility of cisplatin: 20
[1]; [4]
  (SolPt(IV)/SolPt(II)): 28.6
2780R
  resistance factor: (5.2)
  (IC50-Pt(IV)/IC50-Pt(II)): 3.8
  IC50: 45 µM
41MR
  (IC50-Pt(IV)/IC50-Pt(II)): 4.3
  resistance factor: (0.96)
  IC50: 26 µM
41M
  (IC50-Pt(IV)/IC50-Pt(II)): 4.8
  IC50: 27 µM
A2780
  (IC50-Pt(IV)/IC50-Pt(II)): 3.4
  IC50: 8.6 µM
CH1R
  (IC50-Pt(IV)/IC50-Pt(II)): 8.1
  resistance factor: (1.8)
  IC50: 17 µM
CH1
  (IC50-Pt(IV)/IC50-Pt(II)): 3.9
  IC50: 8.6 µM

## CC(=O)[O][Pt]([Cl])([O]C(C)=O)[O]C(C)=O.Cc1ccccn1.N [Compound D]
[1]
  Aqueous Solubility: 80 mg/mL
2780R
  IC50: > 100 µM
41MR
  IC50: > 100 µM
41M
  IC50: > 100 µM
A2780
  IC50: 47 µM
CH1R
  resistance factor: (1.9)
  IC50: 88 µM
CH1
  IC50: 46 µM
